Target: T1, WT hA3ARs (Homo sapiens, UniProt P0DMS8)
T1 construct: The full-length mouse (as previously described^25), human (purchased from the cDNA Resource Center), and human/mouse chimeric
T1 sequence (P0DMS8 1-318): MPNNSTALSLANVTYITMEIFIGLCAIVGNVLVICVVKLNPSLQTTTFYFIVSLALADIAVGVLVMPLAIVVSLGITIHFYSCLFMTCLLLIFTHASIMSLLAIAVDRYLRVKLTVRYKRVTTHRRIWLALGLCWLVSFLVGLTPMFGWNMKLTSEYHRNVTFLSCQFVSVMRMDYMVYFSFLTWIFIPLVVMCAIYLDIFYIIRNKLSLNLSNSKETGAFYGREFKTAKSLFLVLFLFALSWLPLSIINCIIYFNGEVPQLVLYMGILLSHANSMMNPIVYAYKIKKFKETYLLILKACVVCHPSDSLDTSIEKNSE
Assay: [35S]GTPγS binding assay, Cl-IB-MECA concentration-response with modulator, HEK293 cell membranes
Assay type: biochemical
Details: for Emax (%): PAM derivative 1.0 μM, [35S]GTPγS binding induced by Cl-IB-MECA, WT hA3ARs, mean ± SEM, n = 3; for Emax (%) / IC50 ratio: Table 3; for IC50 ratio: ratio of IC50 values for Cl-IB-MECA, DMSO control compared to 100 nM PAM derivative
Source text: Creation of stable HEK293 cell lines expressing wild-type and human/mouse chimeric A3ARs: The full-length mouse (as previously described^25), human (purchased from the cDNA Resource Center), and human/mouse chimeric (custom synthesized by TOP Gene Technologies, St. Laurent, Quebec) A3AR cDNAs were subcloned into pcDNA3.1. The constructs were transfected into HEK293 cells (American Type Culture Collection, Manassas, VA) using Lipofectamine 2000 reagent (Invitrogen, Waltham, MA) and selected with 2 mg/ml of G418 in cell culture media (DMEM with 10% fetal bovine serum, 100 units/ml penicillin, and 100 μg/ml streptomycin). Cell lines derived from individual clones were maintained in cell culture media containing 0.6 mg/ml G418.
Membrane preparations: Transfected HEK293 cells were washed with PBS followed by homogenization in Buffer A containing 10 mM Na+-HEPES, 10 mM EDTA, 1 mM benzamidine (pH 7.4) and centrifugation at 27,000×g for 30 min at 4° C. Cell pellets were subsequently re-homogenized in HE buffer containing 10 mM Na+-HEPES, 1 mM EDTA, 1 mM benzamidine (pH 7.4) and re-centrifuged. The supernatant was discarded, and cell pellets were resuspended in HE buffer containing 10% sucrose and stored at −20° C.
[^35S]GTPγS binding assays: Cell membranes (5 μg protein) isolated from transfected HEK293 cells were pre-treated with modulators for one hour in 100 μl GTPγS binding buffer (50 mM Tris HCL [pH 7.4], 1 mM EGTA, 10 mM MgCl2, 100 mM NaCl, 0.004% CHAPS, and 0.5% BSA) in a 96-well large-volume polypropylene assay plate. In all assays, ZM-241385 (300 nM) and PSB-603 (300 nM) were included to block A2BARs expressed endogenously in HEK293 cells. Adenosine deaminase (ADA) (1 μl/ml) was also included to degrade any endogenous adenosine that might be produced during the assay, except when adenosine was used as the orthosteric agonist. The reactions were initiated by the addition of ~0.2 nM [^35S]GTPγS and agonist in 100 μl GTPγS binding buffer and allowed to incubate for two hours at room temperature. At the end of the two-hour incubation period, the membranes were harvested by rapid filtration through Whatman GF/B filters that had been pre-soaked for two hours in GTPγS binding buffer containing 0.02% CHAPS using a 96-well cell harvester (Brandel, Gaithersburg, MD). Radioactivity trapped in the filters was measured by liquid scintillation counting. Non-specific binding of [^35S]GTPγS was determined in the presence of 10 μM unlabeled GTPγS.
Data Analysis: EMax and EC50 values were calculated from data obtained from agonist concentration-response curves according to: E=([…])/(EC50+x), in which x is the agonist concentration. All values were statistically compared using a two-tailed unpaired Student's t-test or two-tailed paired Student's t-test, as indicated. For dissociation binding assays, fit to a one-phase exponential decay model: Y=(Y0−NS)^(−kxt), in which Y0 is specific binding at time 0, k is the dissociation rate constant, and t is the elapsed time. All values are presented as the mean±SEM. A p value <0.05 was considered statistically significant.
The two series of modulators were evaluated in a [^35S]GTPγS binding assay using isolated HEK293 cell membranes expressing the h A3AR, which detects receptor-induced G protein activation. For these studies, concentration-response curves with the orthosteric agonist Cl-IB-MECA were assessed in the presence of vehicle or 0.1, 1, or 10 μM modulator compound.

[1] = increasing concentrations of modulator (0.1, 1, 10 μM)

Row | Emax (%) | IC50 ratio | SMILES | effect on EC50 (potency) of agonist Cl-IB-MECA, in words [1] | effect on Emax (efficacy) of agonist Cl-IB-MECA, in words [1]
1 |  |  | O=C(Nc1cc(Nc2ccc(Cl)c(Cl)c2)nc2ccccc12)C1CCCCC1 [LUF6096, reference compound] | without reducing the potency of CI-IB-MECA | produced the greatest increase in efficacy
2 | 119.3 ± 6.2% | 0.764 | OCCn1c(C2CCCCC2)nc2c(Nc3ccc(Cl)c(Cl)c3)nc3ccccc3c21 [36 (MRS8236)] |  | 
3 | 149.9 ± 8.8% | 0.406 | Clc1ccc(Nc2nc3ccccc3c3oc(C4CCCCC4)nc23)cc1Cl [41 (RK005-84-1, BS1002)] |  | 
4 | 177.8 ± 11.5% | 1.12 | Cn1c(C2CCCCC2)nc2c(Nc3ccc(Cl)c(Cl)c3)nc3ccccc3c21 [35 (MRS8206)] |  | 
5 | 192.6 ± 11.2% | 0.505 | Clc1ccc(Nc2nc3ccccc3c3sc(C4CCCCC4)nc23)cc1Cl [42 (RK005-79-1, BS1001)] |  | 
6 | 127.0 ± 6.0% | 0.491 | CN(c1ccc(Cl)c(Cl)c1)c1nc2ccccc2c2[nH]c(C3CCCCC3)nc12 [45 (RK006-100-1, BS1007)] |  | 
7 | 137.6 ± 7.3% | 1.11 | Clc1ccc(Sc2nc3ccccc3c3[nH]c(C4CCCCC4)nc23)cc1Cl [47 (RK007-2-1, BS1005)] |  | 
8 | 150.6 ± 5.8% | 0.738 | Clc1ccc(Oc2nc3ccccc3c3[nH]c(C4CCCCC4)nc23)cc1Cl [46 (RK007-4-1, BS1006)] |  | 

Reference: patent publication US20260274835A1, “A3 ADENOSINE RECEPTOR POSITIVE ALLOSTERIC MODULATORS” (The Medical College of Wisconsin, Inc., priority 2022, published 2026)
